According to patent publication US8927715B2, “Inhibitors of 11β-hydroxysteroid dehydrogenase type 1” (Vitae Pharmaceuticals, Inc., priority 2006, dated 2015):

Target: human 11β-HSD1 (Homo sapiens, UniProt P28845)
Experiment: Inhibition of a microsomal preparation of 11β-HSD1, SPA (Biological Test Example 2)
Type: biochemical
Parameters: expressed in transfected cells; host or cells: CHO cells (microsomes)
Conditions: read-out: Biological Test Example 2 (IC50 class)
Experimental: All reactions are carried out at room temperature in 96 well clear flexible PET Microbeta plates (PerkinElmer). […] After a 10 minute pre-incubation, 50 μL of enzyme solution containing microsomes isolated from CHO cells overexpressing human 11β-HSD1 (10-20 μg/ml of total protein) is added, and the plates are then incubated for 90 minutes at room temperature. The reaction is stopped by adding 50 μl of the SPA beads suspension containing […] 18β-glycyrrhetinic acid, 5 mg/ml protein A coated YSi SPA beads (GE Healthcare) and 3.3 μg/ml of anti-cortisol antibody (East Coast Biologics) in Superblock buffer (Bio-Rad). The plates are then shaken for 120 minutes at room temperature, and the SPA signal corresponding to [^3H]cortisol is measured on a Microbeta plate reader.

Chain of human 11β-HSD1 (P28845 whole entry): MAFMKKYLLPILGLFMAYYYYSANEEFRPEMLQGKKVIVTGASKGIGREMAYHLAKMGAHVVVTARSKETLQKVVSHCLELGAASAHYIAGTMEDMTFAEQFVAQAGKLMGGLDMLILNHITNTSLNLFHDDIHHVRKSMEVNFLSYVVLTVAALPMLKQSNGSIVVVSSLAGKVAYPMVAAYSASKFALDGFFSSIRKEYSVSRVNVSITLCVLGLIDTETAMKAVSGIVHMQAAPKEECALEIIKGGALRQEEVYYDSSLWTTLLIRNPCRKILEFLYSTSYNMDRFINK

Row | IC50 [nM] | Structure (SMILES)
1 | < 50 | CC(C)(CO)C1CC2(CCN(C(=O)NC3C4CC5CC(C4)CC3C5)CC2)c2c(Br)cccc21 (racemic) [Example 123, (±)-7-Bromo-N-(2-adamantyl)-3-(1-hydroxy-2-methylpropan-2-yl)-2,3-dihydrospiro[indene-1,4′-piperidine]-1′-carboxamide]
2 | < 50 | NCC1CC2(CCN(C(=O)OC3C4CC5CC(C4)CC3C5)CC2)c2c(Br)cccc21 (racemic) [Example 124, (±)-2-Adamantyl 3-(aminomethyl)-7-bromo-2,3-dihydrospiro[indene-1,4′-piperidine]-1′-carboxylate]
3 | < 50 | CN(C)CC1CC2(CCN(C(=O)OC3C4CC5CC(C4)CC3C5)CC2)c2c(Br)cccc21 (racemic) [Example 125, (±)-2-Adamantyl 7-bromo-3-((dimethylamino)methyl)-2,3-dihydro spiro[indene-1,4′-piperidine]-1′-carboxylate]
4 | < 50 | O=C(NC1C2CC3CC(C2)CC1C3)N1CCC2(CC1)CC(CCN1CCOCC1)c1cccc(Br)c12 (racemic) [Example 126, (±)-7-Bromo-N-(2-adamantyl)-3-(2-morpholinoethyl)-2,3-dihydrospiro[indene-1,4′-piperidine]-1′-carboxamide]
5 | < 50 | NC(=O)CC1CC2(CCN(C(=O)NC3C4CC5CC(C4)CC3C5)CC2)c2c(Br)cccc21 (racemic) [Example 131, (±)-3-(2-amino-2-oxoethyl)-7-bromo-N-(2-adamantyl)-2,3-dihydrospiro[indene-1,4′-piperidine]-1′-carboxamide]
6 | < 50 | O=C(NC1C2CC3CC(C2)CC1C3)N1CCCC2(Cc3ccccc3C2=O)C1 (centres unmarked) [27, Step 1 Product]
7 | < 50 | O=C(NC1C2CC3CC(C2)CC1C3)N1CCCC2(Cc3ccccc3C2O)C1 (centres unmarked) [27, Step 2 Product]
8 | < 50 | O=C(NC1C2CC3CC(C2)CC1C3)N1CCC2(CC1)NC(=S)c1ccccc12 (centres unmarked) [87, Step 1 Product]
9 | < 50 | CN1C(=S)c2ccccc2C12CCN(C(=O)NC1C3CC4CC(C3)CC1C4)CC2 (centres unmarked) [103, Step 1 Product]
10 | < 50 | O=C(NC1C2CC3CC(C2)CC1C3)N1CCC2(CCc3ccccc32)CC1 (centres unmarked) [Example 28, N-(2-Adamantyl)-2,3-dihydrospiro[indene-1,4′-piperidine]-1′-carboxamide]
11 | < 50 | CCOC(=O)CCN1Cc2ccccc2C2(CCN(C(=O)OC3C4CC5CC(C4)CC3C5)CC2)C1 (centres unmarked) [Example 32]
12 | < 50 | CS(=O)(=O)N1Cc2ccccc2C2(CCN(C(=O)NC3C4CC5CC(C4)CC3C5)CC2)C1 (centres unmarked) [Example 34, N-(2-Adamantyl)-2-(methylsulfonyl)-2,3-dihydro-1H-spiro[isoquinoline-4,4′-piperidine]-1′-carboxamide]
13 | < 50 | CNC(=O)N1Cc2ccccc2C2(CCN(C(=O)NC3C4CC5CC(C4)CC3C5)CC2)C1 (centres unmarked) [Example 35, N1′-(2-Adamantyl)-N2-methyl-1H-spiro[isoquinoline-4,4′-piperidine]-1′,2(3H)-dicarboxamide]
14 | < 50 | CCOC(=O)N1Cc2ccccc2C2(CCN(C(=O)NC3C4CC5CC(C4)CC3C5)CC2)C1 (centres unmarked) [Example 36, Ethyl 1′-((2-adamantyl)carbamoyl)-1H-spiro[isoquinoline-4,4′-piperidine]-2(3H)-carboxylate]
15 | < 50 | CC(C)(C)OC(=O)N1Cc2ccccc2C2(CCN(C(=O)OC3C4CC5CC(C4)CC3C5)CC2)C1 (centres unmarked) [Example 37, 2-Tert-butyl 1′-(2-adamantyl) 1H-spiro[isoquinoline-4,4′-piperidine]-1′,2(3H)-dicarboxylate]
16 | < 50 | O=C(OC1C2CC3CC(C2)CC1C3)N1CCC2(CC1)CNCc1ccccc12 (centres unmarked) [Example 38, 2-Adamantyl 2,3-dihydro-1H-spiro[isoquinoline-4,4′-piperidine]-1′-carboxylate]
17 | < 50 | CS(=O)(=O)N1Cc2ccccc2C2(CCN(C(=O)OC3C4CC5CC(C4)CC3C5)CC2)C1 (centres unmarked) [Example 39, 2-Adamantyl 2-(methylsulfonyl)-2,3-dihydro-1H-spiro[isoquinoline-4,4′-piperidine]-1′-carboxylate]
18 | < 50 | CC(C)S(=O)(=O)N1Cc2ccccc2C2(CCN(C(=O)OC3C4CC5CC(C4)CC3C5)CC2)C1 (centres unmarked) [Example 40, 2-Adamantyl 2-(isopropylsulfonyl)-2,3-dihydro-1H-spiro[isoquinoline-4,4′-piperidine]-1′-carboxylate]
19 | < 50 | N#Cc1ccc(N2Cc3ccccc3C3(CCN(C(=O)OC4C5CC6CC(C5)CC4C6)CC3)C2)nc1 (centres unmarked) [Example 41, 2-Adamantyl 2-(5-cyanopyridin-2-yl)-2,3-dihydro-1H-spiro[isoquinoline-4,4′-piperidine]-1′-carboxylate]

Row | IC50 [nM] | Structure (SMILES)
20 | < 50 | CC(C(=O)O)C1CC2(CCN(C(=O)NC3C4CC5CC(C4)CC3C5)CC2)c2c(Br)cccc21 (centres unmarked) [Example 66, 2-(7-Bromo-1′-((2-adamantyl)carbamoyl)-2,3-dihydrospiro[indene-1,4′-piperidine]-3-yl)propanoic acid]
21 | 50 to 1000 | COc1cc(CNC(=O)C23CC4CC(C2)C(OC(=O)N2CCC5(CC2)CC(CC(=O)O)c2ccccc25)C(C4)C3)cc(OC)c1 (centres unmarked) [Example 72, 2-(1′-((1-(3,5-Dimethoxybenzylcarbamoyl)-4-adamantyloxy)carbonyl)-2,3-dihydrospiro[indene-1,4′-piperidine]-3-yl)acetic acid]
22 | < 50 | NC(=O)C12CC3CC(C1)C(OC(=O)N1CCC4(CC1)CC(CC(=O)O)c1ccccc14)C(C3)C2 (centres unmarked) [Example 73, 2-(1′-((1-Carbamoyl-4adamantyloxy)carbonyl)-2,3-dihydrospiro[indene-1,4′-piperidine]-3-yl)acetic acid]
23 | < 50 | O=C(O)CC1CC2(CCN(C(=O)NC3C4CC5CC3CC(F)(C5)C4)CC2)c2c(Br)cccc21 (centres unmarked) [Example 74]
24 | < 50 | COc1ccc2c(c1)CCNC21CCN(C(=O)NC2C3CC4CC(C3)CC2C4)CC1 (centres unmarked) [Example 77, N-(2-Adamantyl)-6-methoxy-3,4-dihydro-2H-spiro[isoquinoline-1,4′-piperidine]-1′-carboxamide]
25 | < 50 | O=C(NC1C2CC3CC(C2)CC1C3)N1CCC2(CCCc3ccccc32)CC1 (centres unmarked) [Example 78, N-(2-Adamantyl)-3,4-dihydro-2H-spiro[naphthalene-1,4′-piperidine]-1′-carboxamide]
26 | < 50 | COC(=O)CC1CCC2(CC1)CCN(C(=O)OC1C3CC4CC(C3)CC1C4)CC2 (centres unmarked) [Example 79, (2-Adamantyl) 9-(2-methoxy-2-oxoethyl)-3-azaspiro[5.5]undecane-3-carboxylate]
27 | 50 to 1000 | O=C(O)CC1CCC2(CC1)CCN(C(=O)OC1C3CC4CC(C3)CC1C4)CC2 (centres unmarked) [Example 80, 2-(3-((2-Adamantyl)oxycarbonyl)-3-azaspiro[5.5]undecan-9-yl)acetic acid]
28 | < 50 | COC(=O)CC1CCC2(CC1)CCN(C(=O)NC1C3CC4CC(C3)CC1C4)CC2 (centres unmarked) [Example 81, Methyl 2-(3-((2-adamantyl)carbamoyl)-3-azaspiro[5.5]undecan-9-yl)acetate]
29 | 50 to 1000 | O=C(O)CC1CCC2(CC1)CCN(C(=O)NC1C3CC4CC(C3)CC1C4)CC2 (centres unmarked) [Example 82, 2-(3-((2-Adamantyl)carbamoyl)-3-azaspiro[5.5]undecan-9-yl)acetic acid]
30 | < 50 | O=C(NC1C2CC3CC(C2)CC1C3)N1CCC2(CC1)OCc1ccccc12 (centres unmarked) [Example 83, N-(2-Adamantyl)-3H-spiro[isobenzofuran-1,4′-piperidine]-1′-carboxamide]
31 | < 50 | CC(C)(C)OC(=O)N1CC2(CCN(C(=O)OC3C4CC5CC3CC(C(N)=O)(C5)C4)CC2)c2ccccc21 (stereo not drawn) [Example 85, 1-Tert-butyl 1′-(trans-1-carbamoyl-4-adamantyl)spiro[indoline-3,4′-piperidine]-1,1′-dicarboxylate]
32 | < 50 | CN1Cc2ccccc2C12CCN(C(=O)NC1C3CC4CC(C3)CC1C4)CC2 (centres unmarked) [Example 86, N-(2-Adamantyl)-2-methylspiro[isoindoline-1,4′-piperidine]-1′-carboxamide]
33 | < 50 | O=C(NC1C2CC3CC(C2)CC1C3)N1CCC2(CC1)NCc1ccccc12 (centres unmarked) [Example 87, N-(2-Adamantyl)spiro[isoindoline-1,4′-piperidine]-1′-carboxamide]
34 | < 50 | CN1Cc2cccc(Cl)c2C12CCN(C(=O)NC1C3CC4CC(C3)CC1C4)CC2 (centres unmarked) [Example 88, 7-Chloro-N-(2-adamantyl)-2-methylspiro[isoindoline-1,4′-piperidine]-1′-carboxamide]
35 | 50 to 1000 | O=C(O)CC1CC2(CCN(C(=O)OC3C4CC5CC3CC(C(=O)NCc3ccccc3)(C5)C4)CC2)c2ccccc21 (centres unmarked) [Example 89, 2-(1′-((1-(Benzylcarbamoyl)-4-adamantyloxy)carbonyl)-2,3-dihydrospiro[indene-1,4′-piperidine]-3-yl)acetic acid]
36 | < 50 | O=C(O)CCC(=O)N1CC2(CCN(C(=O)NC3C4CC5CC(C4)CC3C5)CC2)c2ccccc21 (centres unmarked) [Example 90, 4-(1′-(2-Adamantylcarbamoyl)spiro[indoline-3,4′-piperidine]-1-yl)-4-oxobutanoic acid]
37 | < 50 | O=C(O)/C=C/C(=O)N1Cc2ccccc2C2(CCN(C(=O)NC3C4CC5CC(C4)CC3C5)CC2)C1 (centres unmarked) [Example 91, (E)-4-(1′-(2-Adamantylcarbamoyl)-1H-spiro[isoquinoline-4,4′-piperidine]-2(3H)-yl)-4-oxobut-2-enoic acid]
38 | < 50 | O=C(O)CCC(=O)N1Cc2ccccc2C2(CCN(C(=O)NC3C4CC5CC(C4)CC3C5)CC2)C1 (centres unmarked) [Example 92, 4-(1′-(2-Adamantylcarbamoyl)-1H-spiro[isoquinoline-4,4′-piperidine]-2(3H)-yl)-4-oxobutanoic acid]
